{"source": "PubChem BioAssay AID435016", "about": "(Vanderbilt High Throughput Screening Facility, 2010)", "note": "pEC50: −log10 of the molar value."}
{"system": "HEK293 alpha2C/GIRK, thallium flux fluorescence", "assay": "alpha2C agonist potency with rauwolscine blockade, dose response, mechanism study for alpha2C adrenergic receptor project, cell-based, thallium flux (AID 435016)", "conditions": "EC50 with rauwolscine antagonist"}
{"smiles": "CCSc1nnc(NC(=O)NC(CC)(C(F)(F)F)C(F)(F)F)s1", "pEC50": 5.49}
{"smiles": "C=CCn1c(=S)[nH]c2ccccc2c1=O", "pEC50": 5.50}
{"smiles": "O=c1c(-c2ccc3c(c2)OCCO3)c(C(F)(F)F)oc2cc(O)cc(O)c12", "pEC50": 5.04}
{"smiles": "CCOC(=O)c1ccc(NC(=O)NC(C)C2CCCO2)cc1", "note": "(centres undefined)", "pEC50": 4.30}
